Data published in patent US20160279190A1, “MODULATION OF AXON DEGENERATION” (GENENTECH, INC., priority 2008, published 2016).

What was measured:
[1] = system: protein tyrosine phosphorylation in 3T3-Her2 cells; settings: published source (footnote c), read-out: Cellular IC50; cited from earlier work
DRGs = assay: Campenot chamber local axon degeneration, anti-NGF in axon compartment; assay type: cell-based, mouse; settings: inhibitor 5 μM; anti-NGF in axon compartment, 28 hours
Experimental: Teflon dividers (Tyler Research) were cleaned by washing in water and wiping them clean of any residual grease. Dividers were then soaked in Nochromix (Godax Laboratories)/sulfuric acid overnight, rinsed five times in distilled and autoclaved water (SQ water), boiled for 30 minutes, and then air-dried before use.
Mouse laminin (5 μg/ml in sterile filtered water; Invitrogen) was added to PDL coated 35 mm dishes (BD Biosciences) and they were incubated for 1 hour at 37° C., followed by two rinses in SQ water. The dishes were vacuum-dried and then air-dried in a laminar flow hood for 15 minutes. Prepared dishes were then scored with a pin rake (Tyler Research). […] High vacuum grease (VWR) was added to each Teflon divider under a dissection scope. The laminin coated PDL dishes were inverted and dropped onto the Teflon divider, with additional pressure added by use of a toothpick in the non-track-containing regions. Dishes were incubated for 1 hour at 37° C. Five hundred microliters of NBM+MC (50 ng/ml NGF) solution was added to each of the side compartments, and a grease barrier was added in front of the center cell slot.
Free E13.5 spinal cords were dissected from mouse embryos and placed into NBM+MC (25 ng/ml NGF) solution. DRGs were detached from the spinal cord with a tungsten needle. An NBM+MC-lubricated P200 pipette was used to move DRGs into a 1.5 ml tube. DRGs were pelleted with a tabletop centrifuge for 30 seconds. The supernate was discarded and 0.05% Trypsin/EDTA (cold) was added. The pellet was resolubilized with a pipette and incubated at 37° C. for 15 minutes with constant agitation (650 RPM). The sample was again centrifuged and the supernate discarded. The pellet was resuspended in warm NBM+MC (50 ng/ml NGF) solution and triturated with a flamed glass pipette 20 times, followed by trituration with a fire-bored glass pipette another 20 times. The samples were again centrifuged and the resulting pellets were resuspended in 0.5 ml NBM+MC (50 ng/ml NGF) solution. The cells were diluted to a final concentration of 2.5×10^6 cells/ml. The cell suspensions were loaded into a 1 ml syringe with a 22 gauge needle. The center slot of the Campenot divider was filled using the syringe (to a volume of at least 50 μl). The Campenot chamber was incubated overnight at 37° C. 2.5 ml NGF+MC (50 ng/ml NGF) solution was added to the center compartment and the grease gate was removed. The outer medium (cell body compartment) was replaced after three days with 2.5 ml NBM+MC medium (with 25 ng/ml NGF). After five days in culture, one distal compartment was washed three times with warmed NBM+MC (no NGF) solution. After the third wash, 500 μl NBM+MC (no NGF) solution was added to the axon compartment in combination with either 0.5% DMSO or an inhibitor. The cell body compartment was replaced with 2.5 ml NBM+MC medium (with 25 ng/ml NGF) containing either 0.5% DMSO or inhibitor.
After 28 hours of anti-NGF antibody treatment, 8% PFA/30% sucrose solution (see above) was added directly to the culture medium at a 1:1 dilution and incubated for 30 minutes. The Teflon divider was removed after the first 15 minutes of addition. The system was washed once with 2.5 ml PBS prior to immunostaining. Neurons were blocked in 5% BSA/0.2% triton in PBS for 30 minutes. The primary antibody Tuj1 (Covance) was added to a final dilution of 1:1000 in PBS containing 2% BSA and incubated overnight at 4° C. The dish was washed once with PBS. […] The dish was washed twice with PBS, and a 22×22 mm coverslip (VWR) was added with 350 μl of fluoromount G (Electron Microscopy Sciences). The neurons were visualized by use of a fluorescence microscope.
As described above, E13.5 DRGs were isolated and grown for 5 days in a Campenot chamber.

[2] = system: heregulin induced tyrosine phosphorylation in MDA-MB-453 cells; settings: published source (footnote b), read-out: Cellular IC50; cited from earlier work
sympathetic neurons = assay: toxin-induced degeneration of sympathetic neurons, MTT assay; assay type: cell-based, rat; settings: 24 hour treatment with the toxin alone
Experimental: Cortical neurons plated for 3-4 days were treated with 300 nM vincristine, a microtubule destabilizer, for 6-72 hours. NGF withdrawal-induced apoptosis and degeneration were assayed between 4-36 hours after the final treatment. Apoptosis and degeneration were assayed using both the MTT assay and the lactate dehydrogenase assay. The MTT (3-(4,5-dimethylthiazol-2-yl)-2,5-diphenyltetrazolium bromide) assay measures cell viability based on mitochondrial function. MTT was added to a total of one tenth of the culture volume to each well and incubated at 37° C. with 5% CO2 for 90-120 minutes. The MTT-containing culture media was aspirated and the cells were resuspended in an equal volume of solubilization solution (10% triton X-100, 1 drop HCl, 50 mL isopropanol). Absorbance (570 and 690 nm) was read using a spectrophotometer. Lactate dehydrogenase (LDH) levels were assayed using a CytoTox non-radioactive LDH assay kit (Promega) to assess the amount of cell death in assays. Fifty μL of media from different treatment conditions were used according to the manufacturer's instructions. […]
Sympathetic cervical ganglia were dissected from postnatal day 1 Sprague-Dawley rats (Charles River Labs) and collected in a dish containing Ultraculture media (Lonza) with 5% fetal bovine serum (Invitrogen). […] The cell slurry was filtered over a […] cell strainer (Falcon) and cell number was counted. […]

## C=CC(=O)Nc1ccc2ncnc(Nc3cccc(Br)c3)c2c1 [PD168393]
[1]
  IC50: 100 µM
DRGs
  Axon Compartment (axon protected when inhibitor is in axon compartment): Yes (1)
  Cell Body Compartment (axon protected when inhibitor is in cell body compartment): No (1)
[2]
  IC50: 0.005 µM

## CC[C@@]1(O)C(=O)OCc2c1cc1n(c2=O)Cc2cc3ccccc3nc2-1 [camptothecin]
Sympathetic neurons
  % viability (normalized): 79%
